# Assay results published in patent US20250215039A1, “NUCLEOSIDES FOR TREATING CANCER” (PRIMEFOUR THERAPEUTICS, INC., priority 2022, published 2025).
# Where two headings read alike, the source gives them in different places.
# Test system: cancer cell lines
# Assay: Cancer cell proliferation activity (CellTiterGlo, 72 h)
# Assay type: cell-based
# Conditions: 72 h, 72 h, read-out: IC50
# Outline: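 Cells seeded overnight at 37 °C, then dosed with compound at 0.1% final DMSO and incubated 72 h at 37 °C (5% or 10% CO2 by medium).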
compound,measurement,setting,value
"C[C@]1(CO)O[C@@H](n2cnc3c(N)nc(F)nc32)C[C@@H]1O [Cpd. No. 126, (2R,3S,5R)-5-(6-amino-2-fluoro-9H-purin-9-yl)-2-(hydroxymethyl)-2-methyltetrahydrofuran-3-ol]",IC50,5637 cell line (bladder),1000 nM
same,IC50,CLS439 cell line (bladder),> 50000 nM
same,IC50,HS729 cell line (muscle),1360 nM
same,IC50,HSS78T cell line,820 nM
same,IC50,JAR cell line (placenta),460 nM
same,IC50,SKMELS cell line,> 50000 nM
same,IC50,"Homo sapiens, 22Rv1, 72 h, 22RV1 cell line (prostate)",1570 nM
same,IC50,"Homo sapiens, 786-0, 72 h, 786O cell line (kidney)",520 nM
same,IC50,"Homo sapiens, A204, 72 h, A204 cell line (muscle)",290 nM
same,IC50,"Homo sapiens, A549, 72 h, A549 cell line",> 50000 nM
same,IC50,"Homo sapiens, A673, 72 h, A673 cell line (bone)",2310 nM
same,IC50,"Homo sapiens, A2780, 72 h, A2780 cell line (ovary)",1260 nM
same,IC50,"Homo sapiens, A-375, 72 h, A375 cell line (skin)",260 nM
same,IC50,"Homo sapiens, A-431, 72 h, A431 cell line (skin)",340 nM
same,IC50,"Homo sapiens, ACHN, ACHN cell line (kidney)",3300 nM
same,IC50,"Homo sapiens, ASPC1, 72 h, ASPC1 cell line (pancreas)",420 nM
same,IC50,"Homo sapiens, BT-20, 72 h, BT20 cell line (breast)",520 nM
same,IC50,"Homo sapiens, BXPC-3, 72 h, BXPC3 cell line (pancreas)",> 50000 nM
same,IC50,"Homo sapiens, C-33-A, C33A cell line (cervical)",1790 nM
same,IC50,"Homo sapiens, CAKI-1, 72 h, CAKI1 cell line (kidney)",30 nM
same,IC50,"Homo sapiens, COLO 205, 72 h, COLO205 cell line (colon)",1300 nM
same,IC50,"Homo sapiens, COLO-678, 72 h, COLO678 cell line (colon)",5810 nM
same,IC50,"Homo sapiens, Ca-Ski, CASKI cell line (cervical)",260 nM
same,IC50,"Homo sapiens, Caco-2, 72 h, CACO2 cell line (colon)",720 nM
same,IC50,"Homo sapiens, Calu-6, 72 h, CALU6 cell line (lung)",610 nM
same,IC50,"Homo sapiens, DLD-1, 72 h, DLD1 cell line (colon)",1980 nM
same,IC50,"Homo sapiens, DU-145, 72 h, DU145 cell line (prostate)",120 nM
same,IC50,"Homo sapiens, EFO-21, 72 h, EFO21 cell line (ovary)",570 nM
same,IC50,"Homo sapiens, EJ-28, 72 h, EJ28 cell line (bladder)",560 nM
same,IC50,"Homo sapiens, Granta-519, 72 h, GRANTA-519 cell line (hematological)",1030 nM
same,IC50,"Homo sapiens, HCT-15, 72 h, HCT15 cell line (colon)",1810 nM
same,IC50,"Homo sapiens, HCT-116, 72 h, HCT116 cell line (colon)",930 nM
same,IC50,"Homo sapiens, HEK293, 72 h, HEK293 cell line (kidney)",740 nM
same,IC50,"Homo sapiens, HL-60, 72 h, HL-60 cell line (hematological)",520 nM
same,IC50,"Homo sapiens, HT-29, 72 h, HT29 cell line (colon)",420 nM
same,IC50,"Homo sapiens, HT-1080, 72 h, HT1080 cell line (connective tissue)",> 50000 nM
same,IC50,"Homo sapiens, HeLa, HELA cell line (cervical)",550 nM
same,IC50,"Homo sapiens, HepG2, 72 h, HEPG2 cell line (liver)",790 nM
same,IC50,"Homo sapiens, IGROV-1, 72 h, IGROV1 cell line (ovary)",430 nM
same,IC50,"Homo sapiens, IMR-90, 72 h, IMR.90 cell line",910 nM
same,IC50,"Homo sapiens, J82, 72 h, J82 cell line (bladder)",540 nM
same,IC50,"Homo sapiens, JEG-3, 72 h, JEG3 cell line (placenta)",370 nM
same,IC50,"Homo sapiens, JIMT-1, 72 h, JIMT1 cell line (breast)",70 nM
same,IC50,"Homo sapiens, K562, 72 h, K-562 cell line (hematological)",> 50000 nM
same,IC50,"Homo sapiens, Kasumi 1, 72 h, KASUMI-1 cell line (hematological)",60 nM
same,IC50,"Homo sapiens, L-363, 72 h, L-363 cell line (hematological)",690 nM
same,IC50,"Homo sapiens, LoVo, LOVO cell line (colon)",260 nM
same,IC50,"Homo sapiens, MCF7, 72 h, MCF7 cell line (breast)",> 50000 nM
same,IC50,"Homo sapiens, MDA-MB-231, 72 h, MDAMB231 cell line (breast)",2690 nM
same,IC50,"Homo sapiens, MDA-MB-435, 72 h, MDAMB435 cell line (skin)",1250 nM
same,IC50,"Homo sapiens, MDA-MB-436, 72 h, MDAMB436 cell line (breast)",250 nM
same,IC50,"Homo sapiens, MDA-MB-468, 72 h, MDAMB468 cell line (breast)",790 nM
same,IC50,"Homo sapiens, MG-63, 72 h, MG63 cell line (bone)",> 50000 nM
same,IC50,"Homo sapiens, MHH-ES-1, 72 h, MHHES1 cell line (bone)",860 nM
same,IC50,"Homo sapiens, MIA PaCa-2, 72 h, MIAPACA2 cell line (pancreas)",> 50000 nM
same,IC50,"Homo sapiens, MINO, MINO cell line (hematological)",120 nM
same,IC50,"Homo sapiens, MV4-11, 72 h, MV4-11 cell line (hematological)",70 nM
same,IC50,"Homo sapiens, NCI-H23, 72 h, NCI-H23 cell line (lung)",480 nM
same,IC50,"Homo sapiens, NCI-H82, 72 h, NCIH82 cell line (lung)",610 nM
same,IC50,"Homo sapiens, NCI-H292, 72 h, NCIH292 cell line (lung)",5310 nM
same,IC50,"Homo sapiens, NCI-H460, 72 h, NCIH460 cell line (lung)",620 nM
same,IC50,"Homo sapiens, OVCAR-3, 72 h, OVCAR3 cell line (ovary)",140 nM
same,IC50,"Homo sapiens, OVCAR-4, 72 h, OVCAR4 cell line (ovary)",740 nM
same,IC50,"Homo sapiens, PANC-1, 72 h, PANC1 cell line (pancreas)",> 50000 nM
same,IC50,"Homo sapiens, PC-3, 72 h, PC3 cell line (prostate)",1090 nM
same,IC50,"Homo sapiens, PLC-PRF-5, 72 h, PLCPRF5 cell line (liver)",2160 nM
same,IC50,"Homo sapiens, Panc1005, 72 h, PANC1005 cell line (pancreas)",240 nM
same,IC50,"Homo sapiens, RD, RD cell line (muscle)",2320 nM
same,IC50,"Homo sapiens, Ramos, RAMOS cell line (hematological)",560 nM
same,IC50,"Homo sapiens, SAOS-2, 72 h, SAOS2 cell line (bone)",270 nM
same,IC50,"Homo sapiens, SF-268, 72 h, SF268 cell line (brain)",> 50000 nM
same,IC50,"Homo sapiens, SF-295, 72 h, SF295 cell line (brain)",1940 nM
same,IC50,"Homo sapiens, SK-BR-3, 72 h, SKBR3 cell line (breast)",100 nM
same,IC50,"Homo sapiens, SK-HEP1, 72 h, SKHEP1 cell line (liver)",4780 nM
same,IC50,"Homo sapiens, SK-LMS-1, 72 h, SKLMS1 cell line (uterus)",600 nM
same,IC50,"Homo sapiens, SK-MEL-28, 72 h, SKMEL28 cell line (skin)",1180 nM
same,IC50,"Homo sapiens, SK-N-AS, SKNAS cell line (brain)",780 nM
same,IC50,"Homo sapiens, SK-N-SH, SKNSH cell line (brain)",640 nM
same,IC50,"Homo sapiens, SK-OV-3, 72 h, SKOV3 cell line (ovary)",1030 nM
same,IC50,"Homo sapiens, SNB-75, 72 h, SNB75 cell line (brain)",2600 nM
same,IC50,"Homo sapiens, SU-DHL10, 72 h, SU-DHL-10 cell line (hematological)",460 nM
same,IC50,"Homo sapiens, SU-DHL-6, 72 h, SU-DHL-6 cell line (hematological)",360 nM
same,IC50,"Homo sapiens, SW-620, 72 h, SW620 cell line (colon)",570 nM
same,IC50,"Homo sapiens, T-24, 72 h, T24 cell line (bladder)",920 nM
same,IC50,"Homo sapiens, TE-671, 72 h, TE671 cell line (muscle)",3140 nM
same,IC50,"Homo sapiens, THP-1, 72 h, THP-1 cell line (hematological)",110 nM
same,IC50,"Homo sapiens, U2OS, U2OS cell line (bone)",1120 nM
same,IC50,"Homo sapiens, U-87 MG, U87MG cell line (brain)",5620 nM
same,IC50,"Homo sapiens, UMUC3, 72 h, UMUC3 cell line (bladder)",> 50000 nM
same,IC50,"Homo sapiens, UO-31, 72 h, UO31 cell line (kidney)",300 nM
same,IC50,"Homo sapiens, WSU-NHL, WSU-NHL cell line (hematological)",560 nM
same,IC50,"MT-3, 72 h, MT3 cell line (breast)",500 nM
same,IC50,"NCI-H358M, NCIH358M cell line (lung)",300 nM
same,IC50,"PBMC, PBMC (hematological)",1990 nM
same,IC50,"RD-ES, RDES cell line (bone)",370 nM
